Earlier results, collected in patent US4127517A, “Novel docosapeptides, intermediates therefore and pharmaceutical compositions and methods employing said docosapeptides” (priority 1977, dated 1978).

Tests used:
[1] = injected directly into the brain of the rat
[2] = tested on: brain opiate receptor sites

In the case of “H-Tyr-Gly-Gly-Phe-Met-OH [methionine enkephalin]”, the analgesic activity [1] is given as “weak analgesic agent of short duration” and the “binding to partially purified brain opiate receptor sites” value [2] is given as “binds stereo-specifically”.
